# Experimental data: patent publication US4070469A, “Compound for the treatment of bovine mastitis” (priority 1975, dated 1978)
# Entries after “also recorded” stand apart in the source; their conditions may differ. Read-outs that look alike come from different tables or passages of the source.
# Legend:
# [1] = system: Strep.uberis and Stap.Aureus; assay: Activity against mastitis bacteria in presence of milk (Table I, summary in words); assay type: cell-based
# Text: (§1) The activity of some of said nitrofuryl quinolines derivatives against Strep.uberis and Stap.Aureus in milk has been compared with the activity of some of the compounds so far utilised in the treatment of bovine mastitis. The results are shown in Table I. (The nitrofuryl quinoline derivatives have general formula [drawing 1] the meaning of R, A, R', B, Y, X and Z being given in the Table. R1 =O whenever indicated then the N-oxide is concerned; NF stands for nitrofuryl)
# Str.uberls = assay: Efficiency test in cows suffering from bovine mastitis; assay type: in vivo, cow; conditions: 2 doses, 24 hours interval
# Steph.aureus = assay: as above; assay type: in vivo, cow; conditions: 2 doses, 24 hours interval
# Protocol: In has been shown that said range is effectful by an efficiency test in which various doses of 4-(5-nitrofuryl)-.quinaldinic acid N-oxide were administered to cows suffering from bovine mastitis. There were adminstered 2 doses in intervals of 24 hours. The results are shown in Table V in cured quarters/treated quarters.
# LD50 rats = conditions: rat, in vivo
# Str.dysgal. = assay: Efficiency test in cows suffering from bovine mastitis; assay type: in vivo, cow; conditions: 2 doses, 24 hours interval
# Staph.Aureus [2] = assay: Sensitivity of udder pathogens in milk, serial dilution; assay type: cell-based; conditions: 24 hours, 86 strains
# Protocol: (§2) This indication was verified by testing in vitro by the method of serial dilution the sensitivity of said compound against udder pathogens in milk in various concentrations measured in meg/ml of milk. The number of strains which were killed at each concentration were measured after 24 hours.
# Str.agalactiac = assay: as above; assay type: cell-based; conditions: 24 hours, 34 strains
# Protocol: as §2
# Enterococci = assay: as above; assay type: cell-based; conditions: 24 hours, 8 strains
# Protocol: as §2
# Str.dysgalactiae = assay: as above; assay type: cell-based; conditions: 24 hours, 18 strains
# Protocol: as §2
# Str.uberis = assay: as above; assay type: cell-based; conditions: 24 hours, 32 strains
# Protocol: as §2
# C.pyogenes = assay: as above; assay type: cell-based; conditions: 24 hours, 3 strains
# Protocol: as §2
# LD50 mice = conditions: mouse, in vivo
# [3] = Residue of active compound in milk of the cow; assay type: in vivo; conditions: 500 mg in 7 ml P.E.G. base
# Protocol: Said four compounds were then tested for the length of time they could be detected in the milk of the cow. For this purpose 500 mg in 7 ml of a polyethylene glycol (P.E.G.) base of each compound were administered to several cows and the residue of active compound in milk were measured in mcg/ml after 24, 32 and 40 hours respectively.
# udder = assay: Number of leucocytes (somatic cells) in milk / irritation of the udder; assay type: in vivo, cow
# Protocol: Thereafter 500 mg of each of said compounds in 7 ml of a P.E.G. base and also 7 ml of said base above were administered to several cows and the number of leucocytes (sematic cells) in 10^6 per ml of milk were measured before administration and 40, 48 and 56 hours thereafter. The numbers of leucocytes present indicate the degree of irritation of the udder.
# Strep.uberis = assay: Minimal bactericidal activity (MBC) in milk, field isolates; assay type: cell-based; conditions: Streptococcus uberis, in milk at pH 7.2 - 7.4
# Text: as §1
# (§3) Minimal Bactericidal/Activity (MBC) of representative Nitrofuryl
# (§4) in mcg/ml in milk at pH 7.2 - 7.4. Versus Standards (Field
# Staph.Aureus [4] = assay: as above; assay type: cell-based; conditions: Staphylococcus aureus, in milk at pH 7.2 - 7.4
# Text: as §1, §3, §4
# [5] = 25 meg/ml of milk (so in the source)
structure (smiles),measurement,setting,value
"O=C(O)c1cc(-c2ccc([N+](=O)[O-])o2)c2ccccc2[n+]1[O-] [Compound 1, 2-carboxy-4-[2'-(5'-nitrofuryl)]quinoline N-oxide]",activity in presence of milk (in words),[1],significant activity in milk; also recorded: the most active one
same,"cured quarters, percent",Str.uberls; 50 mg,61.5%
same,cured quarters/treated quarters,Str.uberls; 50 mg,8/13
same,"cured quarters, percent",Str.uberls; 100 mg,80%
same,cured quarters/treated quarters,Str.uberls; 100 mg,4/5
same,"cured quarters, percent",Str.uberls; 250 mg,80%
same,cured quarters/treated quarters,Str.uberls; 250 mg,4/5
same,"cured quarters, percent",Str.uberls; 500 mg,84%
same,cured quarters/treated quarters,Str.uberls; 500 mg,5/6
same,"cured quarters, percent",Steph.aureus; 50 mg,50%
same,cured quarters/treated quarters,Steph.aureus; 50 mg,15/30
same,"cured quarters, percent",Steph.aureus; 100 mg,75%
same,cured quarters/treated quarters,Steph.aureus; 100 mg,6/8
same,"cured quarters, percent",Steph.aureus; 250 mg,75%
same,cured quarters/treated quarters,Steph.aureus; 250 mg,6/8
same,"cured quarters, percent",Steph.aureus; 500 mg,88%
same,cured quarters/treated quarters,Steph.aureus; 500 mg,8/9
same,LD50,LD50 rats,1600 mg/kg
same,"cured quarters, percent",Str.dysgal.; 50 mg,62.5%
same,cured quarters/treated quarters,Str.dysgal.; 50 mg,10/16
same,"cured quarters, percent",Str.dysgal.; 100 mg,80%
same,cured quarters/treated quarters,Str.dysgal.; 100 mg,4/5
same,"cured quarters, percent",Str.dysgal.; 250 mg,83%
same,cured quarters/treated quarters,Str.dysgal.; 250 mg,5/6
same,number of strains killed,Staph.Aureus [2]; 0.16 meg/ml of milk,4 strains
same,number of strains killed,Staph.Aureus [2]; 0.31 meg/ml of milk,14 strains
same,number of strains killed,Staph.Aureus [2]; 0.62 meg/ml of milk,51 strains
same,number of strains killed,Staph.Aureus [2]; 1.25 meg/ml of milk,15 strains
same,number of strains killed,Staph.Aureus [2]; [5],1 strains
same,number of strains killed,Str.agalactiac; 0.02 meg/ml of milk,5 strains
same,number of strains killed,Str.agalactiac; 0.04 meg/ml of milk,12 strains
same,number of strains killed,Str.agalactiac; 0.08 meg/ml of milk,13 strains
same,number of strains killed,Str.agalactiac; 0.16 meg/ml of milk,1 strains
same,number of strains killed,Str.agalactiac; 0.31 meg/ml of milk,1 strains
same,number of strains killed,Str.agalactiac; 0.62 meg/ml of milk,1 strains
same,number of strains killed,Str.agalactiac; 1.25 meg/ml of milk,1 strains
same,number of strains killed,Enterococci; 0.04 meg/ml of milk,2 strains
same,number of strains killed,Enterococci; 0.08 meg/ml of milk,3 strains
same,number of strains killed,Enterococci; 0.16 meg/ml of milk,2 strains
same,number of strains killed,Enterococci; 0.31 meg/ml of milk,1 strains
same,number of strains killed,Str.dysgalactiae; 0.02 meg/ml of milk,1 strains
same,number of strains killed,Str.dysgalactiae; 0.04 meg/ml of milk,2 strains
same,number of strains killed,Str.dysgalactiae; 0.08 meg/ml of milk,13 strains
same,number of strains killed,Str.dysgalactiae; 0.16 meg/ml of milk,1 strains
same,number of strains killed,Str.dysgalactiae; 0.62 meg/ml of milk,1 strains
same,number of strains killed,Str.uberis; 0.16 meg/ml of milk,1 strains
same,number of strains killed,Str.uberis; 0.31 meg/ml of milk,9 strains
same,number of strains killed,Str.uberis; 0.62 meg/ml of milk,18 strains
same,number of strains killed,Str.uberis; 1.25 meg/ml of milk,2 strains
same,number of strains killed,Str.uberis; 5 meg/ml of milk,1 strains
same,number of strains killed,Str.uberis; [5],1 strains
same,number of strains killed,C.pyogenes; 0.62 meg/ml of milk,1 strains
same,number of strains killed,C.pyogenes; 1.25 meg/ml of milk,2 strains
same,LD50,LD50 mice,3000 mg/kg
same,time remaining in the milk (in words),[3],remained the shortest time in the milk
same,concentration at 24 h,"[3]; bovine, milk, 24 hrs",9800 ng/mL
same,irritation of the udder (in words),udder; 500 mg in 7 ml P.E.G. base,caused the lowest irritation
same,"number of leucocytes (sematic cells) in milk, 40 hrs.",udder; 40 hrs after 500 mg in 7 ml P.E.G. base,0.95 10^6 per ml
same,"number of leucocytes (sematic cells) in milk, 48 hrs.",udder; 48 hrs after 500 mg in 7 ml P.E.G. base,1.5 10^6 per ml
same,"number of leucocytes (sematic cells) in milk, 56 hrs.",udder; 56 hrs after 500 mg in 7 ml P.E.G. base,0.95 10^6 per ml
same,"number of leucocytes (sematic cells) in milk, before",udder; before administration (baseline),0.28 10^6 per ml
same,MBC,"Strep.uberis; field isolate 60B, read-out: Minimal Bactericidal Activity (MBC), Strep.uberis 60B",0.015 µg/mL
same,MBC,"Strep.uberis; field isolate 127A, read-out: Minimal Bactericidal Activity (MBC), Strep.uberis 127A",0.25 µg/mL
same,MBC,"Staph.Aureus [4]; field isolate 2337, read-out: Minimal Bactericidal Activity (MBC), Staph.Aureus 2337",0.5 µg/mL
same,MBC,"Staph.Aureus [4]; field isolate 2372, read-out: Minimal Bactericidal Activity (MBC), Staph.Aureus 2372",0.25 µg/mL
